Experimental data reported in patent publication US8586747B2, “3,3-dimethyl tetrahydroquinoline derivatives” (Hoffmann-La Roche Inc., priority 2010, dated 2013).

Each compound was assayed on AMP-activated protein kinase (AMPK) (assay: ADP Quest assay for AMPK activators). Conditions: fold of AMPK activation to phosphorylate SAMS peptide without and with an activator at the concentration of 30 µM.
Format: biochemical
Parameters: key: fold AMPK activation with vs without activator at 30 µM
Summary of the method: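 E30, the fold increase in SAMS peptide phosphorylation at 30 µM compound relative to no activator, is derived from kinetic fluorescent detection of ADP (ex 530, em 590 nm). AMPK starts the ATP-containing reaction at room temperature; compounds span […] by 2-fold steps, AMP serves as reference.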

Row | Structure (SMILES) | E30
1 | CN1CCN(c2cccc(C3Nc4ccc(C(=O)O)cc4CC3(C)C)c2)C(=O)C1=O (centres unmarked) [Example 126, 3,3-Dimethyl-2-[3-(4-methyl-2,3-dioxo-piperazin-1-yl)-phenyl]-1,2,3,4-tetrahydro-quinoline-6-carboxylic acid] | 1.28
2 | CC1(C)Cc2cc(C(=O)NS(C)(=O)=O)ccc2NC1c1cccc(N2C(=O)OC[C@H]2Cc2ccccc2)c1 (stereo partly drawn) [Example 128, N-{2-[3-((R)4-Benzyl-2-oxo-oxazolidin-3-yl)-phenyl]-3,3-dimethyl-1,2,3,4-tetrahydro-quinoline-6-carbonyl}-methanesulfonamide] | 1.26
3 | CN1CCN(c2cccc(C3Nc4ccc(C(=O)NS(=O)(=O)C5CC5)cc4CC3(C)C)c2)C(=O)C1=O (centres unmarked) [Example 129, Cyclopropanesulfonic acid {3,3-dimethyl-2-[3-(4-methyl-2,3-dioxo-piperazin-1-yl)-phenyl]-1,2,3,4-tetrahydro-quinoline-6-carbonyl}-amide] | 1.25
4 | CC1(C)Cc2cc(C(=O)NS(=O)(=O)C3CC3)ccc2NC1c1cccc(N2C(=O)OC[C@H]2Cc2ccccc2)c1 (stereo partly drawn) [Example 130, Cyclopropanesulfonic acid {2-[3-((R)4-benzyl-2-oxo-oxazolidin-3-yl)-phenyl]-3,3-dimethyl-1,2,3,4-tetrahydro-quinoline-6-carbonyl}-amide] | 1.25
5 | CN1CCN(c2cccc(C3Nc4ccc(C(=O)NS(C)(=O)=O)cc4CC3(C)C)c2)C(=O)C1=O (centres unmarked) [Example 131, N-{3,3-Dimethyl-2-[3-(4-methyl-2,3-dioxo-piperazin-1-yl)-phenyl]-1,2,3,4-tetrahydro-quinoline-6-carbonyl}-methanesulfonamide] | 1.24
6 | CC1(C)Cc2cc(C(=O)NS(=O)(=O)C3CC3)ccc2NC1c1cccc(N2C(=O)OC[C@@H]2Cc2ccccc2)c1 (stereo partly drawn) [Example 132, Cyclopropanesulfonic acid {2-[3-((S)-4-benzyl-2-oxo-oxazolidin-3-yl)-phenyl]-3,3-dimethyl-1,2,3,4-tetrahydro-quinoline-6-carbonyl}-amide] | 1.23
7 | CC1(C)Cc2c(C(=O)NS(=O)(=O)C3CC3)ccc(Cl)c2NC1c1cccc(N2CCOCC2)c1 (centres unmarked) [Example 133, Cyclopropanesulfonic acid [8-chloro-3,3-dimethyl-2-(3-morpholin-4-yl-phenyl)-1,2,3,4-tetrahydro-quinoline-5-carbonyl]-amide] | 1.2
8 | CC1(C)Cc2c(cc(F)cc2C(=O)O)NC1c1cccc(N2CCOCC2)c1 (centres unmarked) [Example 134, 7-Fluoro-3,3-dimethyl-2-(3-morpholin-4-yl-phenyl)-1,2,3,4-tetrahydro-quinoline-5-carboxylic acid] | 1.32
9 | CC1(C)Cc2c(cc(F)cc2C(=O)NS(C)(=O)=O)NC1c1cccc(N2CCOCC2)c1 (centres unmarked) [Example 135, N-[7-Fluoro-3,3-dimethyl-2-(3-morpholin-4-yl-phenyl)-1,2,3,4-tetrahydro-quinoline-5-carbonyl]-methanesulfonamide] | 1.31
10 | CC1(C)Cc2cc(C(=O)O)ccc2NC1c1cccc(-n2cnc3c(c2=O)CCN(Cc2ccccc2)C3)c1 (centres unmarked) [Example 136, 2-[3-(7-Benzyl-4-oxo-5,6,7,8-tetrahydro-4H-pyrido[3,4-d]pyrimidin-3-yl)-phenyl]-3,3-dimethyl-1,2,3,4-tetrahydro-quinoline-6-carboxylic acid] | 1.3
11 | CC1(C)Cc2ccc(C(=O)O)c(F)c2NC1c1cccc(N2CCOCC2)c1 (centres unmarked) [Example 137, 8-Fluoro-3,3-dimethyl-2-(3-morpholin-4-yl-phenyl)-1,2,3,4-tetrahydro-quinoline-7-carboxylic acid] | 1.26

Further lines, results first:

Row | E30 | Structure (SMILES)
12 | 1.21 | CC1(C)Cc2c(cc(F)cc2C(=O)NS(=O)(=O)C2CC2)NC1c1cccc(N2CCOCC2)c1 (centres unmarked) [Example 138, Cyclopropanesulfonic acid [7-fluoro-3,3-dimethyl-2-(3-morpholin-4-yl-phenyl)-1,2,3,4-tetrahydro-quinoline-5-carbonyl]-amide]
13 | 1.38 | CN1CCN(c2cccc(C3Nc4c(cc(Cl)cc4C(=O)NS(=O)(=O)C4CC4)CC3(C)C)c2)CC1 (centres unmarked) [Example 139, Cyclopropanesulfonic acid {6-chloro-3,3-dimethyl-2-[3-(4-methyl-piperazin-1-yl)-phenyl]-1,2,3,4-tetrahydro-quinoline-8-carbonyl}-amide]
14 | 1.34 | CC(C)c1ccc(-c2cccc(C3Nc4c(cc(Cl)cc4C(=O)O)CC3(C)C)c2)cc1 (centres unmarked) [Example 140, 6-Chloro-2-(4′-isopropyl-biphenyl-3-yl)-3,3-dimethyl-1,2,3,4-tetrahydro-quinoline-8-carboxylic acid]
15 | 1.3 | CN(C)c1ccc(-c2cccc(C3Nc4c(cc(Cl)cc4C(=O)NS(=O)(=O)C4CC4)CC3(C)C)c2)cc1 (centres unmarked) [Example 141, Cyclopropanesulfonic acid [6-chloro-2-(4′-dimethylamino-biphenyl-3-yl)-3,3-dimethyl-1,2,3,4-tetrahydro-quinoline-8-carbonyl]-amide]
16 | 1.54 | CC(C)(C)c1ccc(-c2cccc(C3Nc4c(cc(Cl)cc4C(=O)O)CC3(C)C)c2)cc1 (centres unmarked) [Example 142, 2-(4′-tert-Butyl-biphenyl-3-yl)-6-chloro-3,3-dimethyl-1,2,3,4-tetrahydro-quinoline-8-carboxylic acid]
17 | 1.33 | CC(C)(C)c1ccc(-c2cccc(C3Nc4c(cc(Cl)cc4C(=O)NS(=O)(=O)C4CC4)CC3(C)C)c2)cc1 (centres unmarked) [Example 143, Cyclopropanesulfonic acid [2-(4′-tert-butyl-biphenyl-3-yl)-6-chloro-3,3-dimethyl-1,2,3,4-tetrahydro-quinoline-8-carbonyl]-amide]
18 | 1.25 | CC(C)(C)c1ccc(-c2cccc(C3Nc4c(cc(Cl)cc4C(=O)NS(C)(=O)=O)CC3(C)C)c2)cc1 (centres unmarked) [Example 144, N-[2-(4′-tert-Butyl-biphenyl-3-yl)-6-chloro-3,3-dimethyl-1,2,3,4-tetrahydro-quinoline-8-carbonyl]-methanesulfonamide]
19 | 1.22 | CCc1nnnn1-c1cccc(C2Nc3ccc(C(=O)NS(=O)(=O)C4CC4)cc3CC2(C)C)c1 (centres unmarked) [Example 145, Cyclopropanesulfonic acid {2-[3-(5-ethyl-tetrazol-1-yl)-phenyl]-3,3-dimethyl-1,2,3,4-tetrahydro-quinoline-6-carbonyl}-amide]
20 | 1.21 | CCc1nnnn1-c1cccc(C2Nc3ccc(C(=O)NS(C)(=O)=O)cc3CC2(C)C)c1 (centres unmarked) [Example 146, N-{2-[3-(5-Ethyl-tetrazol-1-yl)-phenyl]-3,3-dimethyl-1,2,3,4-tetrahydro-quinoline-6-carbonyl}-methanesulfonamide]
21 | 1.35 | CC1(C)Cc2cc(C(=O)O)ccc2NC1c1cccc(-n2nnnc2Cc2ccccc2)c1 (centres unmarked) [Example 147, 2-[3-(5-Benzyl-tetrazol-1-yl)-phenyl]-3,3-dimethyl-1,2,3,4-tetrahydro-quinoline-6-carboxylic acid]
22 | 1.3 | CCc1nnnn1-c1cccc(C2Nc3ccc(C(=O)O)cc3CC2(C)C)c1 (centres unmarked) [Example 148, 2-[3-(5-Ethyl-tetrazol-1-yl)-phenyl]-3,3-dimethyl-1,2,3,4-tetrahydro-quinoline-6-carboxylic acid]
23 | 1.26 | CC1(C)Cc2c(cc(Cl)cc2C(=O)NS(C)(=O)=O)NC1c1cccc(N2CCOCC2)c1 (centres unmarked) [Example 149, N-[7-Chloro-3,3-dimethyl-2-(3-morpholin-4-yl-phenyl)-1,2,3,4-tetrahydro-quinoline-5-carbonyl]-methanesulfonamide]
